Where “and” joins values, the source holds several entries; their conditions need not be identical. Equal entries are not always repeated.
Assays:
[1] = tested on: Fgfr3^N534K/+ mouse model of HCH; test: Fgfr3N534K/+ mice: long bone length; format: in vivo
Experimental: To explore the effectiveness of TYRA-300 in an additional model of FGFR3-related chondrodysplasia, TYRA-300 was evaluated in a Tg-CMV^Cre/+/Fgfr3^N534K/+ mouse model of HCH ([42]). This model is driven by the Fgfr3 N534K mutation, which corresponds to the human FGFR3 N540K mutation ([9], [43]). This model closely recapitulates the skeletal phenotype of HCH in humans, with a milder disproportionate short stature phenotype ([42]). […] Because the goal of treatment with TYRA-300 is to […] Fgfr3 signaling levels, Fgfr3^N534K/+ mice were administered a lower dose of 1.8 mg/kg TYRA-300 daily for the full study. Mice were treated for 21 days, from 3 to 24 days of age. Treatment was started at an older age in the HCH model than in the ACH model, as children with HCH are often diagnosed later than children with ACH.
Tg-CMV^Cre/+/Fgfr3^N534K/+ mice were tattooed and assigned to treatment groups within each litter at 3 days of age (wild-type mice, Fgfr3^N534K/+ mice treated with vehicle, or Fgfr3^N534K/+ mice treated with 1.8 mg/kg TYRA-300). TYRA-300 was dissolved in aqueous HCl (3.5 mM) containing 5% DMSO and administered subcutaneously to Fgfr3^N534K/+ mice (n = 9) for 21 days. The vehicle was administered to wild-type (n = 12) or Fgfr3^N534K/+ mice (n = 11) for 21 days. Subcutaneous administration was used for this study rather than oral gavage due to the size of the mice. Clinical observations, nasoanal length, and tail length measurements were performed every 3 days, and body weights were collected daily.
(§1) Whole body x-ray images were taken of all animals by Faxitron specimen radiography MX-20 (Faxitron X-Ray LLC) following terminal sacrifice. The length of the L4–L6 lumbar vertebra segment was also measured for each animal using calipers, and the height of the L5 vertebral body was measured from Alcian blue/Sirius red images. Long bones and the skull were then excised, and their dimensions were measured using calipers (VWRi819-0013, VWR International). The transverse and sagittal diameters of the foramen magnum were also measured using calipers for the Fgfr3^Y367/+ model, and measured using the μCT images for the Fgfr3^N534K/+ model.

[2] = tested on: skull and foramen magnum of Fgfr3^Y367C/+ mice; test: Fgfr3Y367C/+ mice: skull and foramen magnum (calipers, microCT), grade of synchondroses; format: in vivo, mouse; parameters: source data of Figure 3I (sheet "3I"): grade of synchondroses: scale not given here
Experimental: Another hallmark of ACH that is observed in Fgfr3^Y367C/+ mice is change in the size and shape of the skull and foramen magnum ([28]). The size of the foramen magnum is of particular clinical importance, as its reduced size can cause compression of the brain stem and spinal cord, resulting in significant morbidity and mortality in infants with ACH ([37]–[40]). To study the effects of TYRA-300 on the skull and foramen magnum in Fgfr3^Y367C/+ mice, macroscopic analyses were performed and μCT images were taken of the mice at the end of study. Changes in the shape of the skull are visible on μCT images in TYRA-300–treated Fgfr3^Y367C/+ mice compared with vehicle-treated Fgfr3^Y367C/+ mice (Figure 3A). […] The skull was further analyzed using the μCT images, which enabled measurement of the anteroposterior length and nasio-occipital length of the skull.
The μCT images also indicate that treatment with TYRA-300 modified the synchondroses at the base of the skull (Figure 3, I and J). […] Overall, the improvement in the size and shape of the foramen magnum with TYRA-300 has important clinical implications for foramen magnum stenosis.
as §1
The heads of all mice were isolated, and skin was stripped before being placed in 70% ethanol at 4°C. μCT images of the skulls were measured on the Skyscan-1272 (Bruker) with the following parameters: 10 μm resolution, 680 ms exposure, 70 kV, 142 μA, and 0.350° rotation step. The μCT data were analyzed using DataViewer and CTAn software (version 1.20.8) to perform postprocessing techniques in 3D. The nasio-occipital length and anteroposterior length of the skull were measured using 2D μCT images.

[3] = 1.8 mg/kg daily s.c. for 21 days, 3 to 24 days of age
[4] = Fgfr3N534K/+ mice + TYRA-300, individual animal values, in mm (unit assumed)
[5] = 1.2 mg/kg s.c. daily for 15 days
[6] = 1.2 mg/kg s.c. daily for 15 days, macroscopic
[7] = 1.2 mg/kg s.c. daily for 15 days, microCT

SMILES: C[C@@H](Oc1ccc2[nH]nc(-c3ccc(N4CC5(C4)CN(S(C)(=O)=O)C5)nc3)c2c1)c1c(Cl)cncc1Cl [TYRA-300]
- increase in femur length vs vehicle [1, 3]: 3.70%
- increase in humerus length vs vehicle [1, 3]: 3.22%
- increase in tibia length vs vehicle [1, 3]: 3.75%
- increase in ulna length vs vehicle [1, 3]: 5.03%
- source data of Figure 4A (sheet "4A"): long bone length, bone not given [1, 4]: 12.31 and 12.55 and 12.375 and 11.91 and 12.485 and 12.9 and 12.58 and 12.185 and 11.555
- source data of Figure 4B (sheet "4B"): long bone length, bone not given [1, 4]: 10.06 and 10.16 and 10.36 and 9.8 and 10.2 and 10.18 and 10.1 and 10.15 and 9.47
- source data of Figure 4C (sheet "4C"): long bone length, bone not given [1, 4]: 10.705 and 10.605 and 11.015 and 10.35 and 10.8 and 10.795 and 10.61 and 11.13 and 10.195
- source data of Figure 4D (sheet "4D"): long bone length, bone not given [1, 4]: 8.28 and 8.42 and 8.455 and 8.1 and 8.32 and 8.43 and 8.22 and 8.35 and 8.08
- average normalization of long bone length toward wild-type ([1]; HCH model, 1.8 mg/kg): 25%
- increase in sagittal diameter of the foramen magnum vs vehicle [2, 5]: 9.28%
- increase in transverse diameter of the foramen magnum vs vehicle [2, 5]: 13.05%
- grade of synchondroses (intraoccipital synchondrosis anterior) ([2]; 1.2 mg/kg s.c. daily for 15 days, all treated mice): II or III
- increase in skull length vs vehicle [2, 6]: 10.08%
- increase in skull width vs vehicle [2, 6]: 3.74%
- increase in anteroposterior length of the skull vs vehicle [2, 7]: 8.92%
- increase in area of the foramen magnum vs vehicle [2, 7]: 25.17%
- increase in nasio-occipital length of the skull vs vehicle [2, 7]: 7.87%
- source data of Figure 3I (sheet "3I"): grade of synchondroses ([2]; Fgfr3Y367C/+ mice + TYRA-300, individual animal values): 3 and 2.5

Source: paper PMC12128972, “TYRA-300, an FGFR3-selective inhibitor, promotes bone growth in two FGFR3-driven models of chondrodysplasia” (JCI Insight, 2025)
